Test results published in patent US20240239788A1, “SMALL MOLECULE INHIBITORS OF KRAS G12D MUTANT” (Merck Sharp & Dohme LLC, priority 2021, published 2024).
Where a name gives a salt, the structure may show the parent alone.

Target: KRAS protein containing G12D mutation (Homo sapiens (Human), UniProt P01116, G12D)
Assay: SOS-catalyzed nucleotide exchange assay (GNE), TR-FRET
Assay type: biochemical
Details: biotinylated KRAS G12D, SOS and GTP, 60-minute incubation
Method: Compounds are added to this complex and then after a 60-minute incubation time the mixture is treated with SOS and unlabeled GTP. Small molecule inhibitors stabilize the Bodipy-GDP complex whereas the untreated protein rapidly exchanges Bodipy-GDP for unlabeled GTP resulting in reduced TR-FRET signal.
This solution is referred to as biotinylated KRAS G12D stock solution.

Sequence of KRAS protein containing G12D mutation (P01116 other isoform, or with tags, fused parts or gaps G12D (already in the parent)): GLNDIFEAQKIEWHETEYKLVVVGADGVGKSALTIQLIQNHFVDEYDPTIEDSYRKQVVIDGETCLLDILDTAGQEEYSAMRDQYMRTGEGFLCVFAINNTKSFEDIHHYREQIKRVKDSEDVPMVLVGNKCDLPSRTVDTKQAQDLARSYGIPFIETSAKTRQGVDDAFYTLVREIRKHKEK

| SMILES | IC50 |
| --- | --- |
| CN(C)C[C@@]1(COc2nc(N3C[C@H]4CC[C@@H](C3)N4)c3cc(F)c(-c4c(C(F)(F)F)c(Cl)cc5cnn(C)c45)c(F)c3n2)CC1(F)F (single isomer, unassigned) [201a] | 11100 nM |
| C#Cc1c(F)ccc2ccc(F)c(-c3c(F)cc4c(N5CC6CC[C@@](C)(C5)N6)nc(OC[C@@]56CCCN5C[C@H](F)C6)nc4c3F)c12 (single isomer, unassigned) [246a] | 41.3 nM |
| C#Cc1c(F)ccc2ccc(F)c(-c3c(F)cc4c(N5CC6CC[C@@](C)(C5)N6)nc(OC[C@@]56CCCN5C[C@H](F)C6)nc4c3F)c12 (single isomer, unassigned) [246b] | 165 nM |
| Cc1cc(N)nc(-c2c(Cl)cc3c(N4CC5CC(O)C(C4)N5)nc(OC[C@@]45CCCN4C[C@H](F)C5)nc3c2F)c1C(F)(F)F (single isomer, unassigned) [249a] | 351 nM |
| Cc1nc2[nH]nc(C)c2c(-c2c(F)cc3c(N4C[C@H]5CC[C@@H](C4)N5)nc(OC[C@@]45CCCN4C[C@H](F)C5)nc3c2F)c1C(F)(F)F (single isomer, unassigned) [250a] | 400 nM |
| C#Cc1c(F)ccc2cc(N)nc(-c3c(F)cc4c(N5C[C@H]6CC[C@@H](C5)N6)nc(OC[C@@]56CCCN5C[C@H](F)C6)nc4c3F)c12 (single isomer, unassigned) [252b] | 204 nM |
| CNc1cc(C)c(C(F)(F)F)c(-c2c(F)cc3c(N4CC5CCC(C4)N5)nc(OCC4(CN5CCOCC5)CC4)nc3c2F)n1 (single isomer, unassigned) [Ex. 137a] | 1610 nM |
| CNc1cc(C)c(C(F)(F)F)c(-c2c(F)cc3c(N4CC5CCC(C4)N5)nc(OCC4(CN5CCOCC5)CC4)nc3c2F)n1 (single isomer, unassigned) [Ex. 137b] | 4820 nM |
| Cc1nc(N)cc(-c2c(F)cc3c(N4C[C@H]5CC[C@@](C)(C4)N5)nc(OCC4(CN5CCOCC5)CC4)nc3c2F)c1C(F)(F)F (single isomer, unassigned) [Ex. 139a] | 1670 nM |
| Cc1nc(N)cc(-c2c(F)cc3c(N4C[C@H]5CC[C@@](C)(C4)N5)nc(OCC4(CN5CCOCC5)CC4)nc3c2F)c1C(F)(F)F (single isomer, unassigned) [Ex. 139b] | 287 nM |
| Cc1cc(N)c(F)c(-c2c(F)cc3c(N4CC5CCC(C4)N5)nc(OC[C@@]45CCCN4C[C@H](F)C5)nc3c2F)c1C(F)(F)F (single isomer, unassigned) [Ex. 146b] | 25.2 nM |
| Nc1cc(Cl)c(C(F)(F)F)c(-c2c(Cl)cc3c(N4CC5CCC(C4)N5)nc(OC[C@@]45CCCN4C[C@H](F)C5)nc3c2F)n1 (single isomer, unassigned) [Ex. 154b] | 381 nM |
| Nc1cc(-c2c(Cl)cc3c(N4CC5CCC(C4)N5)nc(OC[C@@]45CCCN4C[C@H](F)C5)nc3c2F)c(C(F)(F)F)c(Cl)n1 (single isomer, unassigned) [Ex. 155a] | 330 nM |
| Cc1nc(N)c(C#N)c(-c2c(F)cc3c(N4CC5CCC(C4)N5)nc(OC[C@@]45CCCN4C[C@H](F)C5)nc3c2F)c1C(F)(F)F (single isomer, unassigned) [Ex. 156a] | 14 nM |
| Cc1nc(N)c(C#N)c(-c2c(F)cc3c(N4CC5CCC(C4)N5)nc(OC[C@@]45CCCN4C[C@H](F)C5)nc3c2F)c1C(F)(F)F (single isomer, unassigned) [Ex. 156b] | 554 nM |
| Cc1cc(N)nc(-c2c(Cl)cc3c(N4CC5CCC(C4)N5)nc(OC[C@@]45CCCN4C[C@H](F)C5)nc3c2F)c1CC(F)(F)F (single isomer, unassigned) [Ex. 157a] | 113 nM |
| Cc1cc(N)nc(-c2c(Cl)cc3c(N4CC5CCC(C4)N5)nc(OC[C@@]45CCCN4C[C@H](F)C5)nc3c2F)c1CC(F)(F)F (single isomer, unassigned) [Ex. 157b] | 2940 nM |
| C#Cc1cccc2cc(O)cc(-c3c(F)cc4c(N5C[C@H]6CC[C@@](C)(C5)N6)nc(OC)nc4c3F)c12 (single isomer, unassigned) [Ex. 171b, TFA] | 3470 nM |
| C[C@]12CCC(CN(c3nc(OCC45CCCN4CC(C(F)F)C5)nc4c(F)c(-c5cc(O)cc6cccc(Cl)c56)c(F)cc34)C1)N2 (single isomer, unassigned) [Ex. 173-2b] | 2230 nM |
| C[C@@]12CC[C@H](CN(c3nc(OC[C@@]45CCCN4C[C@H](F)C5)nc4c(F)c(-c5cc(O)c(Cl)c6cccc(Cl)c56)c(F)cc34)C1)N2 (single isomer, unassigned) [Ex. 174a] | 3130 nM |

| SMILES | IC50 |
| --- | --- |
| C[C@@]12CC[C@H](CN(c3nc(OC[C@@]45CCCN4C[C@H](F)C5)nc4c(F)c(-c5cc(O)c(Cl)c6cccc(Cl)c56)c(F)cc34)C1)N2 (single isomer, unassigned) [Ex. 174b] | 1000 nM |
| C[C@]12CCC(CN(c3nc(OC[C@@H]4CC[C@H]5CC(F)(F)CCN45)nc4c(F)c(-c5cc(O)cc6cccc(Cl)c56)c(F)cc34)C1)N2 (single isomer, unassigned) [Ex. 175b] | 11100 nM |
| Cc1cccc2cc(O)cc(-c3c(F)cc4c(N5CC6CC[C@@](C)(C5)N6)nc(OC[C@@]56CCCN5C[C@H](F)C6)nc4c3F)c12 (single isomer, unassigned) [Ex. 179a] | 5.07 nM |
| Cc1cccc2cc(O)cc(-c3c(F)cc4c(N5CC6CC[C@@](C)(C5)N6)nc(OC[C@@]56CCCN5C[C@H](F)C6)nc4c3F)c12 (single isomer, unassigned) [Ex. 179b] | 727 nM |
| C[C@]12CCC(CN(c3nc(OC[C@@]45CCCN4C[C@H](F)C5)nc4c(F)c(-c5cc(O)cc6cccc(C(F)F)c56)c(F)cc34)C1)N2 (single isomer, unassigned) [Ex. 181a] | 3.97 nM |
| C[C@]12CCC(CN(c3nc(OC[C@@]45CCCN4C[C@H](F)C5)nc4c(F)c(-c5cc(O)cc6cccc(C(F)F)c56)c(F)cc34)C1)N2 (single isomer, unassigned) [Ex. 181b] | 141 nM |
| C[C@]12CCC(CN(c3nc(OC[C@@]45CCCN4C[C@H](F)C5)nc4c(F)c(-c5cc(Cl)cc6cccc(Cl)c56)c(F)cc34)C1)N2 (single isomer, unassigned) [Ex. 184] | 4720 nM |
| Nc1cc2cccc(Cl)c2c(-c2c(F)cc3c(N4CC5CCC(C4)N5)nc(OC[C@@]45CCCN4C[C@H](F)C5)nc3c2F)n1 (single isomer, unassigned) [Ex. 189b] | 11100 nM |
| Cc1cc(N)nc(-c2c(F)cc3c(N4CC5CC[C@@](C)(C4)N5)nc(OC[C@@]45CCCN4C[C@H](F)C5)nc3c2F)c1C(F)(F)F (single isomer, unassigned) [Ex. 200b] | 1130 nM |
| CC(O)(COc1nc(N2CC3CC[C@@](C)(C2)N3)c2cc(F)c(-c3cc(O)cc4cccc(Cl)c34)c(F)c2n1)CN1CC[C@@H](F)C1 (single isomer, unassigned) [Ex. 210] | 2150 nM |
| C#Cc1cccc2cccc(-c3c(F)cc4c(N5CC6CC[C@@](C)(C5)N6)nc(OC[C@@]56CCCN5C[C@H](F)C6)nc4c3F)c12 (single isomer, unassigned) [Ex. 211a] | 2080 nM |
| C[C@]12CCC(CN(c3nc(OC[C@]4(CNCC(F)F)CC4(F)F)nc4c(F)c(-c5cc(O)cc6cccc(Cl)c56)c(F)cc34)C1)N2 (single isomer, unassigned) [Ex. 221] | 1110 nM |
| Cc1cc2[nH]nc(C)c2c(-c2c(F)cc3c(N4CC5CCC(C4)N5)nc(OC[C@@]45CCCN4C[C@H](F)C5)nc3c2F)c1OC(F)F (single isomer, unassigned) [Ex. 233a] | 1070 nM |
| Cc1cc2[nH]nc(C)c2c(-c2c(F)cc3c(N4CC5CCC(C4)N5)nc(OC[C@@]45CCCN4C[C@H](F)C5)nc3c2F)c1OC(F)F (single isomer, unassigned) [Ex. 233b] | 6.11 nM |
| C[C@]12CC[C@H](CN(c3nc(OCC45CCCN4CCC(F)(F)C5)nc4c(F)c(-c5cc(O)cc6cccc(Cl)c56)c(F)cc34)C1)N2 (single isomer, unassigned) [Example 116a] | 2890 nM |
| Cc1cc2[nH]ncc2c(-c2c(F)cc3c(N4CC5CCC(C)(C4)N5)nc(OCC4(CN5CCOCC5)CC4)nc3c2F)c1OC(F)(F)F (stereo in doubt) [Ex. 125, 4-((1-(((6,8-difluoro-7-(6-methyl-5-(trifluoromethoxy)-1H-indazol-4-yl)-4-((1S,5R)-1-methyl-3,8-diazabicyclo[3.2.1]octan-3-yl)quinazolin-2-yl)oxy)methyl)cyclopropyl)methyl) morpholine] | 148 nM |
| Cc1cc2cnn(C)c2c(-c2c(F)cc3c(N4C[C@H]5CC[C@@H](C4)N5)nc(OC[C@@]45CCCN4C[C@H](F)C5)nc3c2F)c1C(F)(F)F [251a, 4-((1R,5S)-3,8-diazabicyclo[3.2.1]octan-3-yl)-7-(1,5-dimethyl-6-(trifluoromethyl)-1H-indazol-7-yl)-6,8-difluoro-2-(((2R, 7aS)-2-fluorotetrahydro-1H-pyrrolizin-7a(5H)-yl)methoxy)quinazoline] | 5.15 nM |
| Cc1cc2cn(C)nc2c(-c2c(F)cc3c(N4C[C@H]5CC[C@@H](C4)N5)nc(OC[C@@]45CCCN4C[C@H](F)C5)nc3c2F)c1C(F)(F)F [251b, 4-((1R,5)-3,8-diazabicyclo[3.2.1]octan-3-yl)-7-(2,5-dimethyl-6-(trifluoromethyl)-2H-indazol-7-yl)-68-difluoro-2-(((2R,7aS)-2-fluorotetrahydro-1H-pyrrolizin-7a(5H)-yl)methoxy)quinazoline] | 935 nM |
| C[C@]12CC[C@H](CN(c3nc(OC[C@@]45CCCN4C[C@H](F)C5)nc4c(F)c(-c5cccn6cccc56)c(F)cc34)C1)N2 [Ex. 130, 6,8-difluoro-2-(((2R,7aS)-2-fluorotetrahydro-1H-pyrrolizin-7a(5H)-yl)methoxy)-7-(indolizin-8-yl)-4-((1S,5R)-1-methyl-3,8-diazabicyclo[3.2.1]octan-3-yl)quinazoline, 2TFA] | 4190 nM |
| Cc1nc(N)cc(-c2c(Cl)cc3c(N4C[C@H]5CC[C@@](C)(C4)N5)nc(OCC4(CN5CCOCC5)CC4)nc3c2F)c1C(F)(F)F [Ex. 138, 4-(6-chloro-8-fluoro-4-((1S,5R)-1-methyl-3,8-diazabicyclo[3.2.1]octan-3-yl)-2-((1-(morpholinomethyl)cyclopropyl)methoxy)quinazolin-7-yl)-6-methyl-5-(trifluorometh-yl)pyridin-2-amine] | 361 nM |
